Assay results from ChEMBL document CHEMBL1201862, “PubChem BioAssay data set” (2004).
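Dose response: 5 concentrations. Exposure: 48 h. Format: 96-well plates. Endpoint: linear interpolation; highest concentration if not reached. GI50 marks 50% less growth.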 Active and inactive are the calls of the source. No stated cut-off is given here; in the data, active = GI50 up to about 1.1 µM and inactive = higher.

Tests used:
Assay in all cases: DTP human tumour cell line panel, 48 h
SK-MEL-28 = system: SK-MEL-28
NCI-H460 = system: NCI-H460
OVCAR-3 = system: OVCAR-3
NCI-H23 = system: NCI-H23
A498 = system: A498
M14 = system: M14
SK-MEL-5 = system: SK-MEL-5
K562 = system: K562
T47D = system: T47D
RPMI-8226 = system: RPMI-8226
SF-295 = system: SF-295
Hs-578T = system: Hs-578T
SNB-19 = system: SNB-19
PC-3 = system: PC-3
LOX IMVI = system: LOX IMVI
MOLT-4 = system: MOLT-4
MCF7 = system: MCF7
CAKI-1 = system: CAKI-1
BT-549 = system: BT-549
HT-29 = system: HT-29

Row | Compound | GI50 (SK-MEL-28) | GI50 (NCI-H460) | GI50 (OVCAR-3) | GI50 (NCI-H23) | GI50 (A498) | GI50 (M14) | GI50 (SK-MEL-5) | GI50 (K562) | GI50 (T47D) | GI50 (RPMI-8226) | GI50 (SF-295) | GI50 (Hs-578T) | GI50 (SNB-19) | GI50 (PC-3) | GI50 (LOX IMVI) | GI50 (MOLT-4) | GI50 (MCF7) | GI50 (CAKI-1) | GI50 (BT-549) | GI50 (HT-29)
1 | CCOC(=O)/C(C#N)=C(/NNc1ccccc1)c1ccncc1C(=O)O | > 39.1 µM (inactive) | > 28.1 µM (inactive) | > 100 µM (inactive) | > 100 µM (inactive) | > 100 µM (inactive) | 5.66 µM (inactive) | 9.82 µM (inactive) | 3.28 µM (inactive) | 8.17 µM (inactive) | > 56.8 µM (inactive) | 5.47 µM (inactive) | > 100 µM (inactive) | > 100 µM (inactive) | 7.08 µM (inactive) | 2.81 µM (inactive) | 5.09 µM (inactive) | > 64.9 µM (inactive) | > 73.1 µM (inactive) | > 100 µM (inactive) | > 63.5 µM (inactive)
2 | Oc1ccc2c(c1)OCC(O)(c1ccccc1O)C2 (stereo not given) | > 100 µM (inactive) | > 100 µM (inactive) | > 100 µM (inactive) | > 100 µM (inactive) | > 100 µM (inactive) | > 100 µM (inactive) | > 100 µM (inactive) | > 100 µM (inactive) | > 100 µM (inactive) | > 100 µM (inactive) | > 100 µM (inactive) | 97.5 µM (inactive) | > 100 µM (inactive) | > 100 µM (inactive) | > 100 µM (inactive) | > 100 µM (inactive) | > 100 µM (inactive) | > 100 µM (inactive) | > 100 µM (inactive) | > 100 µM (inactive)
3 | CSc1nc(NC2CCCC2)c2cc[nH]c2n1 | 92 µM (inactive) | > 100 µM (inactive) | 54.1 µM (inactive) | 91 µM (inactive) | 22.6 µM (inactive) | 65 µM (inactive) | 35.2 µM (inactive) | 32.9 µM (inactive) | 61.1 µM (inactive) | 33.6 µM (inactive) | 34.8 µM (inactive) | 53.1 µM (inactive) | 66.7 µM (inactive) | 43.5 µM (inactive) | 37.6 µM (inactive) | 42.4 µM (inactive) | 57.3 µM (inactive) | > 100 µM (inactive) | 74.6 µM (inactive) | 37.1 µM (inactive)
4 | S=c1ssc2c3ssc(=S)c3n(Cc3ccccc3)c12 | > 100 µM (inactive) | > 100 µM (inactive) | > 100 µM (inactive) | > 100 µM (inactive) | > 100 µM (inactive) | > 100 µM (inactive) | > 100 µM (inactive) | 40.9 µM (inactive) | 22.3 µM (inactive) | > 100 µM (inactive) | > 100 µM (inactive) | > 100 µM (inactive) | > 100 µM (inactive) | 74.6 µM (inactive) | 43.2 µM (inactive) | 4.9 µM (inactive) | 81.3 µM (inactive) | > 100 µM (inactive) | > 100 µM (inactive) | > 100 µM (inactive)
5 | CCOC(=O)C(C(N)=O)C1=Nc2cc([N+](=O)[O-])ccc2N/C1=C\C(=O)c1ccc(C)cc1 (stereo not given) | 29.3 µM (inactive) | 22.2 µM (inactive) | 15.8 µM (inactive) | 16.9 µM (inactive) | 27.8 µM (inactive) | 38.3 µM (inactive) | 33.9 µM (inactive) | 2.46 µM (inactive) | 60.1 µM (inactive) | 18.1 µM (inactive) | 19.4 µM (inactive) | 21.6 µM (inactive) | 20.7 µM (inactive) | 20 µM (inactive) | 23.3 µM (inactive) | 0.522 µM (active) | 22.4 µM (inactive) | 46.6 µM (inactive) | 22.6 µM (inactive) | 33.1 µM (inactive)
